In brackets after ≈: the same amount, converted by molar mass.
Assays:
Format in all cases: functional
Moraxella catarrhalis [1] = assay: Bacteriostatic activity against erythromycin-susceptible Moraxella catarrhalis 11B366 after 20 hrs by two-fold microbroth dilution method; conditions: 11B366, 20 h
Moraxella catarrhalis [2] = assay: Bactericidal activity against erythromycin-susceptible Moraxella catarrhalis 11B366 incubated for 20 hrs followed by sub-culturing for 24 hrs in absence of compound
Streptococcus pyogenes [3] = assay: Bacteriostatic activity against Streptococcus pyogenes 01-968 expressing inducible ermA after 20 to 24 hrs by two-fold microbroth dilution method
Streptococcus pneumoniae [4] = assay: Ratio of MBC to MIC for penicillin-susceptible Streptococcus pneumoniae PU09
Streptococcus pneumoniae [5] = assay: Bactericidal activity against penicillin-susceptible Streptococcus pneumoniae PU09 incubated for 20 to 24 hrs followed by sub-culturing for 24 hrs in absence of compound
Haemophilus influenzae [6] = assay: Ratio of MBC to MIC for azithromycin susceptible/ampicillin-resistant Haemophilus influenzae 11P307
Streptococcus pyogenes [7] = assay: Bactericidal activity against Streptococcus pyogenes 12-207 expressing mef incubated for 20 to 24 hrs followed by sub-culturing for 24 hrs in absence of compound
Streptococcus pyogenes [8] = assay: Bacteriostatic activity against Streptococcus pyogenes 12-207 expressing mef after 20 to 24 hrs by two-fold microbroth dilution method
Streptococcus pneumoniae [9] = assay: Ratio of MBC to MIC for […] Streptococcus pneumoniae ATCC 49619
Streptococcus pyogenes [10] = assay: Ratio of MBC to MIC for Streptococcus pyogenes 01-968 expressing inducible ermA
Streptococcus pyogenes [11] = assay: Ratio of MBC to MIC for Streptococcus pyogenes 12-207 expressing mef
Streptococcus pneumoniae [12] = assay: Bacteriostatic activity against penicillin-susceptible Streptococcus pneumoniae PU09 after 20 to 24 hrs by two-fold microbroth dilution method
Staphylococcus aureus [13] = assay: Bacteriostatic activity against methicillin-resistant Staphylococcus aureus PU20 expressing constitutive ermC after 20 hrs by two-fold microbroth dilution method; conditions: PU20, 20 h
Staphylococcus aureus [14] = assay: Bactericidal activity against methicillin-resistant Staphylococcus aureus PU32 expressing inducible ermA incubated for 20 hrs followed by sub-culturing for 24 hrs in absence of compound
Moraxella catarrhalis [15] = assay: Ratio of MBC to MIC against erythromycin-susceptible Moraxella catarrhalis 11B366
Staphylococcus aureus [16] = assay: Ratio of MBC to MIC against methicillin-resistant Staphylococcus aureus PU32 expressing inducible ermA
Streptococcus pneumoniae [17] = assay: Bacteriostatic activity against […] Streptococcus pneumoniae ATCC 49619 after 20 to 24 hrs by two-fold microbroth dilution method
Streptococcus pyogenes [18] = assay: Bactericidal activity against Streptococcus pyogenes 01-968 expressing inducible ermA incubated for 20 to 24 hrs followed by sub-culturing for 24 hrs in absence of compound
Haemophilus influenzae [19] = assay: Bactericidal activity against azithromycin susceptible/ampicillin-resistant Haemophilus influenzae 11P307 incubated for 20 to 24 hrs followed by sub-culturing for 24 hrs in absence of compound
Streptococcus pneumoniae [20] = assay: Bactericidal activity against […] Streptococcus pneumoniae ATCC 49619 incubated for 20 to 24 hrs followed by sub-culturing for 24 hrs in absence of compound
Haemophilus influenzae [21] = assay: Bacteriostatic activity against azithromycin-susceptible/ampicillin-resistant Haemophilus influenzae 11P307 after 20 to 24 hrs by two-fold microbroth dilution method
Staphylococcus aureus [22] = assay: Bacteriostatic activity against methicillin-resistant Staphylococcus aureus PU32 expressing inducible ermA after 20 hrs by two-fold microbroth dilution method; conditions: PU32, 20 h
Staphylococcus aureus [23] = assay: Bactericidal activity against methicillin-resistant Staphylococcus aureus PU20 expressing constitutive ermC incubated for 20 hrs followed by sub-culturing for 24 hrs in absence of compound
Moraxella catarrhalis [24] = assay: Bacteriostatic activity against erythromycin-susceptible Moraxella catarrhalis 13L332 after 20 hrs by two-fold microbroth dilution method; conditions: 13L332, 20 h
Moraxella catarrhalis [25] = assay: Bactericidal activity against erythromycin-susceptible Moraxella catarrhalis 13L332 incubated for 20 hrs followed by sub-culturing for 24 hrs in absence of compound
Moraxella catarrhalis [26] = assay: Ratio of MBC to MIC against erythromycin-susceptible Moraxella catarrhalis 13L332
Staphylococcus aureus [27] = assay: Ratio of MBC to MIC for methicillin-resistant Staphylococcus aureus PU20 expressing constitutive ermC

`C=CCN(C)[C@H]1C[C@@H](C)O[C@@H](O[C@@H]2[C@@H](C)C(=O)[C@@H](C)C(=O)O[C@H](CC)[C@@]3(C)OC(=O)O[C@@H]3[C@@H](C)/C(=N/OC/C=C/c3cnc4ccccc4c3)[C@H](C)C[C@@]2(C)OC)[C@@H]1O` gave an MIC (Moraxella catarrhalis [1]) of 8 µg/mL (≈ 9.73 µM), an MBC (Moraxella catarrhalis [2]) of 16 µg/mL (≈ 19.5 µM) and an MIC (Streptococcus pyogenes [3]) of 0.5 µg/mL (≈ 0.608 µM). For the same compound, the Ratio (Streptococcus pneumoniae [4]) was 1, the MBC (Streptococcus pneumoniae [5]) was 0.5 µg/mL (≈ 0.608 µM) and the Ratio (Haemophilus influenzae [6]) was >8. It also gave an MBC (Streptococcus pyogenes [7]) of 1 µg/mL (≈ 1.22 µM), an MIC (Streptococcus pyogenes [8]) of 0.25 µg/mL (≈ 0.304 µM) and a Ratio (Streptococcus pneumoniae [9]) of 4. For the same compound, the Ratio (Streptococcus pyogenes [10]) was 8, the Ratio (Streptococcus pyogenes [11]) was 4 and the MIC (Streptococcus pneumoniae [12]) was 0.5 µg/mL (≈ 0.608 µM). For the same compound, the MIC (Staphylococcus aureus [13]) was > 256 µg/mL, the MBC (Staphylococcus aureus [14]) was > 16 µg/mL and the Ratio (Moraxella catarrhalis [15]) was 2. The Ratio (Staphylococcus aureus [16]) was >8, the MIC (Streptococcus pneumoniae [17]) was 0.062 µg/mL (≈ 0.0754 µM) and the MBC (Streptococcus pyogenes [18]) was 4 µg/mL (≈ 4.87 µM). The MBC (Haemophilus influenzae [19]) was > 256 µg/mL, the MBC (Streptococcus pneumoniae [20]) was 0.25 µg/mL (≈ 0.304 µM) and the MIC (Haemophilus influenzae [21]) was 32 µg/mL (≈ 38.9 µM). The MIC (Staphylococcus aureus [22]) was 2 µg/mL (≈ 2.43 µM).
For `CC[C@H]1OC(=O)[C@H](C)[C@H](OC(=O)Cc2ccccn2)[C@H](C)[C@@H](O[C@@H]2O[C@H](C)C[C@H](N(C)C)[C@H]2O)[C@@](C)(OC/C=C/c2cnc3ccccc3c2)C[C@@H](C)/C(=N\O)[C@H](C)[C@H]2OC(=O)O[C@@]21C`, the MBC (Staphylococcus aureus [23]) was > 256 µg/mL, the MIC (Streptococcus pyogenes [3]) was 8 µg/mL (≈ 8.86 µM) and the Ratio (Streptococcus pneumoniae [4]) was 2. The MIC (Moraxella catarrhalis [24]) was 0.5 µg/mL (≈ 0.554 µM), the MBC (Streptococcus pneumoniae [5]) was 16 µg/mL (≈ 17.7 µM) and the Ratio (Streptococcus pneumoniae [9]) was 4. For the same compound, the Ratio (Streptococcus pyogenes [10]) was 8, the MBC (Moraxella catarrhalis [25]) was > 4 µg/mL and the MIC (Streptococcus pneumoniae [12]) was 8 µg/mL (≈ 8.86 µM). For the same compound, the MIC (Staphylococcus aureus [13]) was 256 µg/mL (≈ 283 µM), the Ratio (Moraxella catarrhalis [26]) was >8 and the MBC (Staphylococcus aureus [14]) was > 256 µg/mL. The Ratio (Staphylococcus aureus [16]) was >4, the MIC (Streptococcus pneumoniae [17]) was 4 µg/mL (≈ 4.43 µM) and the MBC (Streptococcus pyogenes [18]) was 64 µg/mL (≈ 70.9 µM). For the same compound, the MBC (Streptococcus pneumoniae [20]) was 16 µg/mL (≈ 17.7 µM) and the MIC (Staphylococcus aureus [22]) was 64 µg/mL (≈ 70.9 µM).
With `CC[C@H]1OC(=O)[C@H](C)[C@@H](OC(=O)Cc2ccccn2)[C@H](C)[C@@H](O[C@@H]2O[C@H](C)C[C@H](N(C)C)[C@H]2O)[C@](C)(OC)C[C@@H](C)/C(=N\OC/C=C/c2cccnc2)[C@H](C)[C@H]2OC(=O)O[C@@]21C` the MBC (Staphylococcus aureus [23]) was > 256 µg/mL, the MIC (Streptococcus pyogenes [3]) was 64 µg/mL (≈ 73.8 µM) and the Ratio (Streptococcus pneumoniae [4]) was >8. The MIC (Moraxella catarrhalis [24]) was 32 µg/mL (≈ 36.9 µM), the MBC (Streptococcus pneumoniae [5]) was > 64 µg/mL and the Ratio (Streptococcus pneumoniae [9]) was >4. For the same compound, the MBC (Moraxella catarrhalis [25]) was 64 µg/mL (≈ 73.8 µM), the MIC (Streptococcus pneumoniae [12]) was 8 µg/mL (≈ 9.23 µM) and the MIC (Staphylococcus aureus [13]) was > 256 µg/mL. For the same compound, the Ratio (Moraxella catarrhalis [26]) was 2, the MBC (Staphylococcus aureus [14]) was > 256 µg/mL and the MIC (Streptococcus pneumoniae [17]) was 16 µg/mL (≈ 18.5 µM). The MBC (Streptococcus pyogenes [18]) was > 64 µg/mL, the MBC (Streptococcus pneumoniae [20]) was > 64 µg/mL and the MIC (Staphylococcus aureus [22]) was 256 µg/mL (≈ 295 µM).
`CC[C@H]1OC(=O)[C@H](C)[C@@H](OC(=O)Cc2ccccn2)[C@H](C)[C@@H](O[C@@H]2O[C@H](C)C[C@H](N(C)C)[C@H]2O)[C@](C)(OC)C[C@@H](C)/C(=N\OC)[C@H](C)[C@H]2OC(=O)O[C@@]21C` was tested, and the MBC (Staphylococcus aureus [23]) was > 256 µg/mL, the MIC (Streptococcus pyogenes [3]) was 0.25 µg/mL (≈ 0.327 µM) and the Ratio (Streptococcus pneumoniae [4]) was 2. It also gave an MIC (Moraxella catarrhalis [24]) of 0.25 µg/mL (≈ 0.327 µM), an MBC (Streptococcus pneumoniae [5]) of 1 µg/mL (≈ 1.31 µM) and a Ratio (Streptococcus pyogenes [10]) of 8. For the same compound, the MBC (Moraxella catarrhalis [25]) was > 2 µg/mL, the MIC (Streptococcus pneumoniae [12]) was 0.5 µg/mL (≈ 0.655 µM) and the MIC (Staphylococcus aureus [13]) was > 256 µg/mL. The Ratio (Moraxella catarrhalis [26]) was >8, the MBC (Staphylococcus aureus [14]) was > 32 µg/mL and the Ratio (Staphylococcus aureus [16]) was >8. The MIC (Streptococcus pneumoniae [17]) was 0.125 µg/mL (≈ 0.164 µM), the MBC (Streptococcus pyogenes [18]) was 2 µg/mL (≈ 2.62 µM) and the MBC (Streptococcus pneumoniae [20]) was 0.25 µg/mL (≈ 0.327 µM). For the same compound, the MIC (Staphylococcus aureus [22]) was 4 µg/mL (≈ 5.24 µM).
`CC[C@H]1OC(=O)[C@@](C)(F)C(=O)[C@H](C)[C@@H](O[C@@H]2O[C@H](C)C[C@H](N(C)C)[C@H]2O)[C@](C)(OC)C[C@@H](C)/C(=N\OC/C=C/c2cnc3ccccc3c2)[C@H](C)[C@H]2OC(=O)O[C@@]21C` was tested, and the MIC (Moraxella catarrhalis [1]) was 2 µg/mL (≈ 2.46 µM), the MBC (Moraxella catarrhalis [2]) was 2 µg/mL (≈ 2.46 µM) and the MBC (Staphylococcus aureus [23]) was 256 µg/mL (≈ 315 µM). For the same compound, the MIC (Streptococcus pyogenes [3]) was 0.25 µg/mL (≈ 0.307 µM), the Ratio (Streptococcus pneumoniae [4]) was 2 and the MBC (Streptococcus pneumoniae [5]) was 1 µg/mL (≈ 1.23 µM). For the same compound, the Ratio (Haemophilus influenzae [6]) was >8, the MBC (Streptococcus pyogenes [7]) was > 0.5 µg/mL and the Ratio (Staphylococcus aureus [27]) was 4. The MIC (Streptococcus pyogenes [8]) was 0.062 µg/mL (≈ 0.0762 µM), the Ratio (Streptococcus pneumoniae [9]) was “>=8” and the Ratio (Streptococcus pyogenes [10]) was 8. The Ratio (Streptococcus pyogenes [11]) was >8, the MIC (Streptococcus pneumoniae [12]) was 0.5 µg/mL (≈ 0.614 µM) and the MIC (Staphylococcus aureus [13]) was 64 µg/mL (≈ 78.6 µM). The MBC (Staphylococcus aureus [14]) was > 16 µg/mL, the Ratio (Moraxella catarrhalis [15]) was 1 and the Ratio (Staphylococcus aureus [16]) was >8. The MIC (Streptococcus pneumoniae [17]) was ≤ 0.008 µg/mL, the MBC (Streptococcus pyogenes [18]) was 2 µg/mL (≈ 2.46 µM) and the MBC (Haemophilus influenzae [19]) was > 64 µg/mL. It also gave an MBC (Streptococcus pneumoniae [20]) of 0.062 µg/mL (≈ 0.0762 µM), an MIC (Haemophilus influenzae [21]) of 8 µg/mL (≈ 9.83 µM) and an MIC (Staphylococcus aureus [22]) of 2 µg/mL (≈ 2.46 µM).
With `C#CCN(C)[C@H]1C[C@@H](C)O[C@@H](O[C@@H]2[C@@H](C)C(=O)[C@@H](C)C(=O)O[C@H](CC)[C@@]3(C)OC(=O)O[C@@H]3[C@@H](C)/C(=N/OC/C=C/c3cnc4ccccc4c3)[C@H](C)C[C@@]2(C)OC)[C@@H]1O` the MIC (Moraxella catarrhalis [1]) was 32 µg/mL (≈ 39 µM), the MBC (Moraxella catarrhalis [2]) was > 256 µg/mL and the MIC (Streptococcus pyogenes [3]) was 0.5 µg/mL (≈ 0.61 µM). The Ratio (Streptococcus pneumoniae [4]) was 4, the MBC (Streptococcus pneumoniae [5]) was 4 µg/mL (≈ 4.88 µM) and the MBC (Streptococcus pyogenes [7]) was > 8 µg/mL. The MIC (Streptococcus pyogenes [8]) was 1 µg/mL (≈ 1.22 µM), the Ratio (Streptococcus pyogenes [10]) was >8 and the Ratio (Streptococcus pyogenes [11]) was >8. The MIC (Streptococcus pneumoniae [12]) was 1 µg/mL (≈ 1.22 µM), the MIC (Staphylococcus aureus [13]) was > 256 µg/mL and the MBC (Staphylococcus aureus [14]) was > 16 µg/mL. For the same compound, the Ratio (Moraxella catarrhalis [15]) was >8, the MIC (Streptococcus pneumoniae [17]) was 0.25 µg/mL (≈ 0.305 µM) and the MBC (Streptococcus pyogenes [18]) was > 4 µg/mL. For the same compound, the MBC (Streptococcus pneumoniae [20]) was 1 µg/mL (≈ 1.22 µM), the MIC (Haemophilus influenzae [21]) was > 256 µg/mL and the MIC (Staphylococcus aureus [22]) was 16 µg/mL (≈ 19.5 µM).

Source: ChEMBL document CHEMBL4004878, “Design, synthesis and structure-bactericidal activity relationships of novel 9-oxime ketolides and reductive epimers of acylides” (2017)
